These results are taken from patent US10876088B2, “Modular organ microphysiological system with integrated pumping, leveling, and sensing” (Massachusetts Institute of Technology, priority 2016, dated 2020).

One data set relates to 7-way MPS platform. The procedure: The 7-way platform include gut (immune-competent), liver (immune-competent), lung, endometrium, cardiac, brain, and pancreas MPSs, and was assessed for survivability and function over a 3-week period. Each MPS was differentiated or matured in isolation prior to the interaction study. Platforms were run at a systemic flow rate of Qmix=10 mL/day, with flow partitioning. During the medium changes, a basal common medium was used for the gut, lung, liver, and endometrium MPSs, while the new MPS were supplied with their preferred maintenance media. Each basal medium was then allowed to mix throughout the course of the interaction, with media changes at 48-hour intervals. Functionality of each MPS was evaluated every 2-4 days up to 3 weeks, in comparison to isolated MPSs to benchmark the non-interacting MPS functions.

Data set [1] deals with immune-competent liver MPS (hepatocytes and Kupffer cells). The procedure: (§1) Metabolic and immunologically competent 3D cryopreserved human hepatocytes and kupffer cells were cocultured.
An immune-competent liver MPS model was prepared and studied.

For data set [2] the following is noted: human, in vivo.
In a further data set the test system is endometrium MPS. The data set is described as follows: Drug toxicity in endometrium MPS. In kind it is cell-based. The protocol:
An exemplary endometrium model of cell culture system in a […]® on the MPS platform includes hydrogel encapsulating stromal cells and epithelial cells on top surface of the hydrogel were cultured on the apical side of the […]®. […] The cell line used was Ishikawa human stage 1 adenocarincoma cell line, which were estrogen and progesterone receptor positive, polarized in matrigel (Chitcholtan et al., Exp Cell Research, (2013)) or functionalized PEG gels, and had low/variable secretion of glycodelin. […] The cell line used was human tert-immortalized cell line (tHESC), which was highly proliferative and stable, had low/variable secretion of prolactin or IGF-BP1 without strong decidualization cues, and could be quiesced in PEG gels.
An endometrium MPS model was prepared and studied.

The conditions of data set [3]: oral, in vivo; read-out: maximum measured plasma concentration, Cmax; cited from earlier work.
The test system of data set [4] is hepatocyte-Kupffer cocultured liver MPS. The experiment in a line: Hydrocortisone effect on cocultured liver MPS. Type of data set: cell-based, human. The protocol:
as §1
The secretions of interleukin 6 (IL-6) and tumor necrosis factor alpha (TNFα) of the cocultured liver MPS were measured. The reproducibility of IL-6 response to LPS stimulus was determined. A physiologically-relevant (relatively low) level of cortisol was used in the common media.

Data set [5] concerns immune-competent gut MPS (Caco2, HT29-MTX, dendritic cells).
In data set [6] the test system is immune-competent gut-liver interacted MPS. The data set is described as follows: Gut-liver 2-way MPS, tolcapone added to gut ("oral"). In kind it is cell-based, human. The protocol:
Tolcapone was added to the gut MPS to mimick “oral” administration. Metrics were an volume-weighted average from the 3 media compartments: Signalsystemic=Signalapical, gut*Vapical, gut+Signalbasal, gut*Vbasal, gut+Signalliver*Vliver.

Data set [7] has as its system hepatocyte-Kupffer cell co-cultures. The data set is described as follows: LPS stimulus of hepatocyte-Kupffer co-cultures. Type of data set: cell-based, human.

With `O=C(O)Cc1ccccc1Nc1c(Cl)cccc1Cl` [Diclofenac, diclofenac], in the data set with 7-way MPS platform, the “absorption and distribution across MPS compartments” value is listed as “absorbed across the gut epithelial barrier”. The “unbound intrinsic clearance CL_int(u)” value in the data set with 7-way MPS platform (human) is 13.90 µL/min. Besides, the liver functions entry in data set [1] is recorded as “impaired liver functions”. In [1] (immune-competent liver MPS), the cell death entry was “cell death was minimal”. Further, the “free drug elimination per cell rate constant” value in data set [2] was 1.76×10^−10 (cell*min)^−1. In addition, the “loss of function and cellular death” value in the data set with endometrium MPS is reported as “loss of function correlating with cellular death”. In [3], the Cmax is 2 to 6 µM.
Consider `C[C@]12CCC(=O)C=C1CC[C@@H]1[C@@H]2[C@@H](O)C[C@@]2(C)[C@H]1CC[C@]2(O)C(=O)CO` [Hydrocortisone], for which the “CYP450 activity dependence on hydrocortisone levels” value in data set [4] (21 day cultures) is “sensitive”. Also, in [4] (cocultured liver MPS), the differentiated function result was “enhanced differentiated function” and the inflammatory response entry is recorded as “suppressed inflammatory response”.
With `Cc1ccc(C(=O)c2cc(O)c(O)c([N+](=O)[O-])c2)cc1` [Tolcapone], in data set [5], the cell death result was “severe cellular death” and the “epithelial barrier integrity / epithelial function” value is recorded as “complete loss of epithelial function”. Also, in data set [1] (immune-competent liver MPS), the cell death result is “caused cell death” and the mitochondrial activity result is listed as “decreased mitochondrial activity”. Moreover, in data set [6], the “generic cell death marker” value is recorded as “insensitive”; the “gut and liver function” value is given as “MPS-specific loss of function”. Also, the cell death markers entry in data set [6] (MPS-specific markers) was “suffered from MPS-specific cell death markers”. The “loss of function and cellular death” value in the data set with endometrium MPS is reported as “loss of function correlating with cellular death”.
Lipopolysaccharide: the “lowest LPS stimulus to which co-cultures were responsive” value in [7] is at least 0.01 µg/mL.
